From patent US8980848B2, “Flavonoid dimers and their use” (The Hong Kong Polytechnic University, priority 2010, dated 2015)

Tests used:
[1] = Tumor cell line cytotoxicity of flavonoid dimers, LCC6MDR; assay type: cell-based, human; conditions: human, IC50 of compound alone
Procedure: (§1) (b) Tumor Cell Line Cytotoxicity. The tumor cytotoxicity assays of flavonoid dimers were performed against LCC6, LCC6MDR and L929 cell lines. […] In brief, LCC6, LCC6MDR and L929 cells were seeded into 96-well flat bottom microtiter plate at 1×10^4 cells per well in a final volume of 100 μL media, respectively. A graded dose of flavonoid dimers was added into wells. The plate was incubated at 37° C. for 72 hrs at the atmosphere 5% CO2 in the air. The % of survivors was determined.

[2] = Tumor cell line cytotoxicity of flavonoid dimers, LCC6; assay type: cell-based, human; conditions: human, IC50 of compound alone
Procedure: as §1

Pgp (LCC6MDR cells) = Pgp (LCC6MDR cells) (Homo sapiens, UniProt P08183); test: Cell proliferation assay: Pgp-modulating activity, reversal of anticancer drug resistance in LCC6MDR cells; conditions: for RF (Relative Fold), cpd at 0.5 μM: RF = (IC50 without modulator)/(IC50 with 0.5 μM modulator); for RF (Relative Fold), cpd at 0.5 μM / RF (Relative Fold), cpd at 1 μM: paclitaxel; for RF (Relative Fold), cpd at 0.5 μM / RF (Relative Fold), cpd at 1 μM / EC50: LCC6MDR; for RF (Relative Fold), cpd at 1 μM: RF = (IC50 without modulator)/(IC50 with 1.0 μM modulator); for EC50: EC50 of compounds for reversing anticancer drug resistance (nM); for Therapeutic index: IC50 of compounds for L929/EC50 of compounds for lowering paclitaxel drug resistance
Procedure: Cell Proliferation Assay. 6,000 cells of LCC6 or LCC6MDR and anticancer drugs (paclitaxel, vinblastine, vincristine, doxorubicin and mitoxantrone) were mixed with or without modulators to a final volume of 200 μL in each well of 96-well plates. […] The plates were then incubated for 5 days at 37° C. […] IC50 values were calculated from the dose-response curves of MTS assays (Prism 4.0).

[3] = Cytotoxicity of flavonoid dimers, L929 mouse fibroblast; assay type: cell-based; conditions: mouse, IC50 of compound alone, 72 hrs, mouse fibroblast
Procedure: as §1

Chain of Pgp (LCC6MDR cells) (P08183 whole entry): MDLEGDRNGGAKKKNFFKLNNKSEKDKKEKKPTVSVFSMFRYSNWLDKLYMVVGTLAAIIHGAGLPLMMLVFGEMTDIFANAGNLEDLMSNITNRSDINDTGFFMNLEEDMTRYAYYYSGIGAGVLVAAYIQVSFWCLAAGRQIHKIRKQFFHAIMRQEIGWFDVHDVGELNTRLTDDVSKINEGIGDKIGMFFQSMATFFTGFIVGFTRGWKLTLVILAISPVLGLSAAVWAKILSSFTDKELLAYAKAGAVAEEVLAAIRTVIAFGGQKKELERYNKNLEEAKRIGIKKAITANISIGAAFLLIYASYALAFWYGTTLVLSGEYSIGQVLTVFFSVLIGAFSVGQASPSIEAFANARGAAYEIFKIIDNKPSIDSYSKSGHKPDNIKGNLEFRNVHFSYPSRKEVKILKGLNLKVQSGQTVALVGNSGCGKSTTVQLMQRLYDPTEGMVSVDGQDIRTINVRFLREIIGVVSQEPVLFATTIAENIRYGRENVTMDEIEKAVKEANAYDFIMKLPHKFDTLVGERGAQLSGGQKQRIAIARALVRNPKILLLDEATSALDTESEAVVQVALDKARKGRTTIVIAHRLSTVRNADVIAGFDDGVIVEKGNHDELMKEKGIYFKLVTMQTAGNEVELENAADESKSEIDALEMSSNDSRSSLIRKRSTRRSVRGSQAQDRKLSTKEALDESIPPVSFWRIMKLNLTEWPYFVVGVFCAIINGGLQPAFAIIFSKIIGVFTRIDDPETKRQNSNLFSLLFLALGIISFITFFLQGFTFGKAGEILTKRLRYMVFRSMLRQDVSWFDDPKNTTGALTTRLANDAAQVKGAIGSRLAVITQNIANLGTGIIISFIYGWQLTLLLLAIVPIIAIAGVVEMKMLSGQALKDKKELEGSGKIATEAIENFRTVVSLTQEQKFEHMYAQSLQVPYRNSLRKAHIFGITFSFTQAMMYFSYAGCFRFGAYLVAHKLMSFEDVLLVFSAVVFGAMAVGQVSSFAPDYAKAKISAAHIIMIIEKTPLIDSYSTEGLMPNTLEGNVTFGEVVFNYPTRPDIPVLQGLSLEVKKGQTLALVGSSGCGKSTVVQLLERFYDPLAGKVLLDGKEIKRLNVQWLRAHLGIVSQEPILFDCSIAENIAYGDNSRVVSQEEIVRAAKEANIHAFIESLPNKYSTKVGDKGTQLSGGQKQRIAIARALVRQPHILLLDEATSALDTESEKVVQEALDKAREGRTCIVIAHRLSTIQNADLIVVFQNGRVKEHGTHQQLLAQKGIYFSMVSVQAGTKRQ

| EC50 (Pgp (LCC6MDR cells); Paclitaxel) [nM] | SMILES | IC50 at 72 h ([1]; LCC6MDR cells) [µM] | IC50 at 72 h ([2]; LCC6 cells) [µM] | RF (Relative Fold), cpd at 0.5 μM (Pgp (LCC6MDR cells)) | IC50 at 72 h ([3]; L929 fibroblast cells) [µM] | RF (Relative Fold), cpd at 1 μM (Pgp (LCC6MDR cells)) | Therapeutic index (Pgp (LCC6MDR cells)) | also measured |
| --- | --- | --- | --- | --- | --- | --- | --- | --- |
| – | COc1cc(-c2cc(=O)c3ccccc3o2)ccc1OCCOCCNCCOCCOc1ccc(-c2cc(=O)c3ccccc3o2)cc1OC [Compound 12b, 1,13-Bis[4′-((4H-chromen-4-on-2-yl)-3′-methoxyphenyl)]-1,4,10,13-tetraoxa-7-azamidecane] | 23.8 ± 12.8 | 12.8 ± 1.1 | (0.8) | – | – | – | – |
| – | Cc1ccc2oc(-c3ccc(OCCOCCNCCOCCOc4ccc(-c5cc(=O)c6cc(C)ccc6o5)cc4)cc3)cc(=O)c2c1 [Compound 12c, 1,13-Bis[4′-((6-methyl)-4H-chromen-4-on-2-yl)phenyl]-1,4,10,13-tetraoxa-7-azamidecane] | 7 ± 1.4 | 7.5 ± 0.9 | (13.9) | 6 ± 0.6 | – | – | – |
| – | COc1cccc2oc(-c3ccc(OCCOCCNCCOCCOc4ccc(-c5cc(=O)c6c(OC)cccc6o5)cc4)cc3)cc(=O)c12 [Compound 12d, 1,13-Bis[4′-((5-methoxy)-4H-chromen-4-on-2-yl)phenyl]-1,4,10,13-tetraoxa-7-azamidecane] | 10.2 ± 3.8 | 8.8 ± 2.7 | (1.2) | – | – | – | – |
| – | O=c1c(OCc2ccccc2)c(-c2ccc(OCCOCCNCCOCCOc3ccc(-c4oc5ccccc5c(=O)c4OCc4ccccc4)cc3)cc2)oc2ccccc12 [Compound 12e, 1,13-Bis[4′-((3-benzyloxy)-4H-chromen-4-on-2-yl)phenyl]-1,4,10,13-tetraoxa-7-azamidecane] | 4.4 ± 0.1 | 4.3 ± 0.5 | (54.7) | 4.2 | – | – | – |
| – | O=c1cc(-c2ccc(OCCOCCNCCOCCOc3ccc(-c4cc(=O)c5cc(F)ccc5o4)cc3)cc2)oc2ccc(F)cc12 [Compound 12f, 1,13-Bis[4′-((6-fluoro)-4H-chromen-4-on-2-yl)phenyl]-1,4,10,13-tetraoxa-7-azamidecane] | 3.3 ± 0.5 | 5.3 ± 1 | (72.9) | 5.7 ± 0.4 | (109.4) | – | – |
| – | COc1cc(-c2cc(=O)c3ccccc3o2)ccc1OCCOCCN(CCOCCOc1ccc(-c2cc(=O)c3ccccc3o2)cc1OC)C(=O)OC(C)(C)C [Compound 16b, 1,13-Bis[4′-((4H-chromen-4-on-2-yl)-3′-methoxyphenyl)]-7-(tert-butylformyl)-1,4,10,13-tetraoxa-7-azamidecane] | 6.9 ± 2.9 | 8.3 ± 1.4 | (8.7) | 33.3 | – | – | – |
| – | C[C@H](N)C(=O)N(CCOCCOc1ccc(-c2cc(=O)c3ccccc3o2)cc1)CCOCCOc1ccc(-c2cc(=O)c3ccccc3o2)cc1 [Compound 23b, 1,13-Bis[4′-(4H-chromen-4-on-2-yl)phenyl]-7-[(S)-2-amino-1-oxopropyl]-1,4,10,13-tetraoxa-7-azamidecane] | 4.6 ± 0.2 | 4.4 | (1.0) | – | – | – | – |
| – | O=C(c1ccccc1)N(CCOCCOc1ccc(-c2cc(=O)c3ccccc3o2)cc1)CCOCCOc1ccc(-c2cc(=O)c3ccccc3o2)cc1 [Compound 23d, 1,13-Bis[4′-(4H-chromen-4-on-2-yl)phenyl]-7-(benzoyl)-1,4,10,13-tetraoxa-7-azamidecane] | > 100 | > 100 | (7.5) | 95 | – | – | – |
| – | CC(C)(C)CC(=O)N(CCOCCOc1ccc(-c2cc(=O)c3ccccc3o2)cc1)CCOCCOc1ccc(-c2cc(=O)c3ccccc3o2)cc1 [Compound 33, 1,13-Bis[4′-(4H-chromen-4-on-2-yl)phenyl]-7-(tert-butylacetyl)-1,4,10,13-tetraoxa-7-azamidecane] | > 100 | > 100 | (18.9) | > 100 | – | – | – |
| 150 | O=c1cc(-c2ccc(OCCOCCN(CCOCCOc3ccc(-c4cc(=O)c5ccccc5o4)cc3)Cc3ccc(C(F)(F)F)cc3)cc2)oc2ccccc12 [Compound 35, 1,13-Bis[4′-(4H-chromen-4-on-2-yl)phenyl]-7-(4-trifluoromethylbenzyl)-1,4,10,13-tetraoxa-7-azamidecane] | > 100 | > 100 | (37.3) | 32.7 | – | 218.0 | – |
| 246 ± 66 | O=c1cc(-c2ccc(OCCOCCN(CCOCCOc3ccc(-c4cc(=O)c5ccccc5o4)cc3)Cc3ccc(F)cc3F)cc2)oc2ccccc12 [Compound 40, 1,13-Bis[4′-(4H-chromen-4-on-2-yl)phenyl]-7-(2,4-difluorobenzyl)-1,4,10,13-tetraoxa-7-azamidecane] | > 100 | > 100 | (32.6) | > 100 | (117.8) | >406.5 | – |
| 237 ± 91 | O=c1cc(-c2ccc(OCCOCCN(CCOCCOc3ccc(-c4cc(=O)c5ccccc5o4)cc3)Cc3c(F)cccc3F)cc2)oc2ccccc12 [Compound 41, 1,13-Bis[4′-(4H-chromen-4-on-2-yl)phenyl]-7-(2,6-difluorobenzyl)-1,4,10,13-tetraoxa-7-azamidecane] | > 100 | > 100 | (34.0) | > 100 | (90.1) | >421.9 | – |
| 104 ± 7 | COc1ccc(CN(CCOCCOc2ccc(-c3cc(=O)c4ccccc4o3)cc2)CCOCCOc2ccc(-c3cc(=O)c4ccccc4o3)cc2)cc1 [Compound 42a, 1,13-Bis[4′-(4H-chromen-4-on-2-yl)phenyl]-7-(4-methoxybenzyl)-1,4,10,13-tetraoxa-7-azamidecane] | > 100 | > 91 | (61.2) | > 100 | (117.8) | >961.5 | EC50 (Pgp (LCC6MDR cells); Daunorubicin): 61 ± 6 nM; EC50 (Pgp (LCC6MDR cells); Doxorubicin): 63 ± 8 nM; EC50 (Pgp (LCC6MDR cells); Mitoxantrone): 96 ± 27 nM; EC50 (Pgp (LCC6MDR cells); Vinblasinte, vinblastine): 94 ± 13 nM; EC50 (Pgp (LCC6MDR cells); Vincristine): 98 ± 5 nM |
| – | O=c1cc(-c2ccc(OCCOCCN(CCOCCOc3ccc(-c4cc(=O)c5ccccc5o4)cc3)Cc3ccc(OC(F)(F)F)cc3)cc2)oc2ccccc12 [Compound 42b, 1,13-Bis[4′-(4H-chromen-4-on-2-yl)phenyl]-7-(4-trifluoromethoxybenzyl)-1,4,10,13-tetraoxa-7-azamidecane] | > 100 | > 100 | (3.8) | > 83 | (47.8) | – | – |
| 140 ± 12 | CC(=O)Oc1ccc(CN(CCOCCOc2ccc(-c3cc(=O)c4ccccc4o3)cc2)CCOCCOc2ccc(-c3cc(=O)c4ccccc4o3)cc2)cc1 [Compound 42c, 1,13-Bis[4′-(4H-chromen-4-on-2-yl)phenyl]-7-(4-acetyloxybenzyl)-1,4,10,13-tetraoxa-7-azamidecane] | 5.9 ± 0.7 | 6.6 ± 1 | (95.7) | 4.5 ± 0.1 | (117.8) | 32.1 | – |
| 141 ± 9 | O=c1cc(-c2ccc(OCCOCCN(CCOCCOc3ccc(-c4cc(=O)c5ccccc5o4)cc3)Cc3ccc(O)cc3)cc2)oc2ccccc12 [Compound 42d, 1,13-Bis[4′-(4H-chromen-4-on-2-yl)phenyl]-7-(4-hydroxybenzyl)-1,4,10,13-tetraoxa-7-azamidecane] | 5.3 ± 0.7 | 5.4 ± 0.6 | (117.8) | 4.8 ± 0.3 | (117.8) | 34.0 | – |
| – | O=c1cc(-c2ccc(OCCOCCN(CCOCCOc3ccc(-c4cc(=O)c5ccccc5o4)cc3)Cc3cc4c(cc3Cl)OCO4)cc2)oc2ccccc12 [Compound 42f, 1,13-Bis[4′-(4H-chromen-4-on-2-yl)phenyl]-7-[5-(6-chloropiperonyl)]-1,4,10,13-tetraoxa-7-azamidecane] | > 100 | > 100 | (4.8) | > 100 | (80.6) | – | – |
| – | COc1cccc(CN(CCOCCOc2ccc(-c3cc(=O)c4ccccc4o3)cc2)CCOCCOc2ccc(-c3cc(=O)c4ccccc4o3)cc2)c1 [Compound 43, 1,13-Bis[4′-(4H-chromen-4-on-2-yl)phenyl]-7-(3-methoxybenzyl)-1,4,10,13-tetraoxa-7-azamidecane] | > 100 | > 100 | (22.5) | > 100 | (95.7) | – | – |
| – | C/C=C/C[C@@H](C)C(=O)[C@H]1C(=O)N[C@@H](C(C)C)C(=O)N(C)CC(=O)N(C)[C@@H](CC(C)C)C(=O)N[C@@H](C(C)C)C(=O)N(C)[C@@H](CC(C)C)C(=O)N[C@@H](C)C(=O)N[C@H](C)C(=O)N(C)[C@@H](CC(C)C)C(=O)N(C)[C@@H](CC(C)C)C(=O)N(C)[C@@H](C(C)C)C(=O)N1C [PSC833, reference compound] | – | – | – | – | – | – | IC50 at 72 h [1]: 14.6 ± 2.2 µM; IC50 at 72 h [3]: > 100 µM; IC50 at 72 h [2]: 25.3 ± 4.3 µM |
